Columns and labels:
[1] = for Stabilized Chlorine Dioxide Concentration, 0 Days / Stabilized Chlorine Dioxide Concentration, 7 Days / Stabilized Chlorine Dioxide Concentration, 14 Days: ingredient added at ppm shown (100) to brimonidine composition; for Stabilization of chlorine dioxide by the excipient (in words): summary of Table 1
Method: Each of the excipients was added, in the amounts shown, to a proprietary composition comprising brimonidine as a therapeutically active agent.

[2] = chlorine dioxide to ClO2-; permanganate to manganese dioxide; cited from earlier work

Compound | Stabilized Chlorine Dioxide Concentration, 0 Days [1] | Stabilized Chlorine Dioxide Concentration, 7 Days [1] | Stabilized Chlorine Dioxide Concentration, 14 Days [1] | Stabilization of chlorine dioxide by the excipient (in words) [1] | Standard reduction potential [2]
O=C([O-])C(=O)[O-].[Na+].[Na+] [Sodium Oxalate] | 39 ppm | 38 ppm | 35 ppm | ineffective | 
CC(O)C(=O)[O-].[Na+] (centres unmarked) [Sodium Lactate] | 45 ppm | 40 ppm | 37 ppm |  | 
O=C([O-])/C(O)=C(\O)C(=O)[O-].[Na+].[Na+] [Sodium Dihydroxyfurmarate] | 37 ppm | 13 ppm | 0 ppm |  | 
[O][Cl+][O-] [chlorine dioxide] |  |  |  |  | 1.07 V
O=C(O)CN(CCN(CC(=O)O)CC(=O)O)CC(=O)O [EDTA] | 44 ppm | 2 ppm | 0 ppm | do not stabilize the chlorine dioxide | 
NCCN [Ethylene diamine] |  |  |  | do not stabilize the chlorine dioxide | 
CC(=O)C(=O)[O-].[Na+] [Sodium Pyruvate] |  |  |  | ineffective | 
O=C[O-].[Na+] [Sodium Formate] | 42 ppm | 40 ppm | 36 ppm |  | 
